Measurements as given in US20250339569A1, “CARBONIC ANHYDRASE IX LIGANDS” (priority 2021, published 2025).
Read-outs that look alike come from different tables or passages of the source. Starred links: 1 amine or outer side, 2 acyl side, 3 side chain; linkers in the order of their positions; H or OH if unused. Positions of bridges follow the written chain, without caps; N, C: chain ends. Non-standard residues stand in square brackets, D forms with d. Residues, ends and D or L forms follow the SMILES beside them. *: point of attachment. Phe(3-NHCO(CH2)3SO2NH2) = N[C@@H](Cc1cccc(NC(=O)CCCS(N)(=O)=O)c1)C(=O)O; DOTA = O=C(O)CN1CCN(CC(=O)O)CCN(CC(=O)*)CCN(CC(=O)O)CC1; Propanoyl(3-SO2NH2) = NS(=O)(=O)CCC(=O)*; Phe(4-NH2) = Nc1ccc(C[C@H](N)C(=O)O)cc1; mXylylene = c1cc(C[*:1])cc(C[*:2])c1; X18 = NS(=O)(=O)c1ccc(C(=O)*)nc1; X1 = O=C(CN1CCN([*:1])CC1)[*:2]; X27 = NS(=O)(=O)c1ccc(C(=O)*)s1; Dap = NC[C@H](N)C(=O)O

Assays:
[1] = target: T1, CAIX-expressing human HT-29 colorectal cancer cells (Homo sapiens, UniProt Q16790); experiment: FACS binding assay (IC50 determination, competition with tracer 3BP-2776 or 3BP-4149); conditions: FACS binding assay, HT-29 cells, 4° C., 1 hour, read-out: pIC50 category (activity) (converted)
T1 construct: CAIX-expressing human HT-29 colorectal cancer cells; host or cells: HT-29 human colorectal cancer cells
Procedure, shortened: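 HT-29 cells in FACS buffer (PBS, 1% FCS) at 500.000 cells/ml were exposed to compounds competing with a labelled tracer, with biotinylated compounds detected by 1 μg/mL APC-streptavidin for 30 min on ice. APC/Cy5 median fluorescence was read by flow cytometry and IC50 derived by 4PL fit.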

[2] = target: T2, human carbonic anhydrase IX (hCAIX-Fc) (Homo sapiens, UniProt Q16790); experiment: Surface plasmon resonance assay with hCAIX-Fc; type: binding; conditions: 25° C.; for t1/2 category (activity): SPR dissociation half-life, hCAIX-Fc; for Kd: SPR, hCAIX-Fc captured, read-out: pKD category (activity) (converted)
T2 construct: purchased SinoBliological (Sino Biological) 10107-H02H

[3] = competition with tracer 3BP-4149 (3 nM, Cy5-labeled)
[4] = competition with tracer 3BP-2776 (10 nM, biotin-labeled)

SMILES | IC50 [1, 3] [µM] | t1/2 category (activity) [2] | Kd [2] [µM] | IC50 [1, 4] [µM]
CC(C)C[C@@H]1NC(=O)[C@H](Cc2ccc(NC(=O)c3ccc(S(N)(=O)=O)s3)cc2)NC(=O)[C@H](CC(=O)O)NC(=O)[C@H]2CCCN2C(=O)[C@H](CCC(=O)O)NC(=O)[C@@H](NC(=O)[C@H](Cc2ccc(O)cc2)NC(=O)CN2CCN(C(=O)CN3CCN(CC(=O)O)CCN(CC(=O)O)CCN(CC(=O)O)CC3)CC2)CSCc2cccc(c2)CSC[C@@H](C(N)=O)NC(=O)[C@H](CO)NC(=O)[C@H](Cc2c[nH]c3ccccc23)NC(=O)[C@H]([C@@H](C)O)NC1=O [3BP-4457] ({DOTA}-[X1]YCE[dP]D[Phe(4-NH2)](X27)LTWSC-NH2; linker 3-12 via mXylylene) | < 0.01 | B (t1/2 between 5.1 and 15.0 minutes) | < 0.01 | –
CC(C)C[C@@H]1NC(=O)[C@H](Cc2ccc(NC(=O)c3ccc(S(N)(=O)=O)cn3)cc2)NC(=O)[C@H](CC(=O)O)NC(=O)[C@H]2CCCN2C(=O)[C@H](CCC(=O)O)NC(=O)[C@@H](NC(=O)[C@H](CCC(N)=O)NC(=O)CN2CCN(C(=O)CN3CCN(CC(=O)O)CCN(CC(=O)O)CCN(CC(=O)O)CC3)CC2)CSCc2cccc(c2)CSC[C@@H](C(N)=O)NC(=O)[C@H](CO)NC(=O)[C@H](Cc2c[nH]c3ccccc23)NC(=O)[C@H]([C@@H](C)O)NC1=O [3BP-4480] ({DOTA}-[X1]QCE[dP]D[Phe(4-NH2)](X18)LTWSC-NH2; linker 3-12 via mXylylene) | 0.01 to 0.0794 | C (t1/2 between 2.1 and 5.0 minutes) | < 0.01 | –
CC(C)C[C@@H]1NC(=O)[C@H](Cc2cccc(NC(=O)CCCS(N)(=O)=O)c2)NC(=O)[C@H](CC(=O)O)NC(=O)[C@H]2CCCN2C(=O)[C@H](CCC(=O)O)NC(=O)[C@@H]2CSCc3cccc(c3)CSC[C@@H](C(N)=O)NC(=O)[C@H](CNC(=O)C[C@H](NC(=O)CN3CCN(CC(=O)O)CCN(CC(=O)O)CCN(CC(=O)O)CC3)C(=O)N2)NC(=O)[C@H](Cc2c[nH]c3ccccc23)NC(=O)[C@H]([C@@H](C)O)NC1=O [3BP-4488] ({DOTA}-DCE[dP]D[Phe(3-NHCO(CH2)3SO2NH2)]LTW[Dap]C-NH2; lactam 1-10; linker 2-11 via mXylylene) | < 0.01 | A (t1/2>15.0 minutes) | < 0.01 | –
CC(C)C[C@@H]1NC(=O)[C@H](Cc2ccc(NC(=O)CCS(N)(=O)=O)cc2)NC(=O)[C@H](CC(=O)O)NC(=O)[C@H]2CCCN2C(=O)[C@H](CCC(=O)O)NC(=O)[C@@H]2CSCc3cccc(c3)CSC[C@@H](C(N)=O)NC(=O)[C@H](CNC(=O)C[C@H](NC(=O)CN3CCN(CC(=O)O)CCN(CC(=O)O)CCN(CC(=O)O)CC3)C(=O)N2)NC(=O)[C@H](Cc2c[nH]c3ccccc23)NC(=O)[C@H]([C@@H](C)O)NC1=O [3BP-4489] ({DOTA}-DCE[dP]D[Phe(4-NH2)](Propanoyl(3-SO2NH2))LTW[Dap]C-NH2; lactam 1-10; linker 2-11 via mXylylene) | < 0.01 | A (t1/2>15.0 minutes) | < 0.01 | –
CC(C)C[C@@H]1NC(=O)[C@H](Cc2cccc(NC(=O)CCCS(N)(=O)=O)c2)NC(=O)[C@H](CC(=O)O)NC(=O)[C@H]2CCCN2C(=O)[C@H](CCC(=O)O)NC(=O)[C@@H]2CSCc3cccc(c3)CSC[C@@H](C(N)=O)NC(=O)[C@H](CNC(=O)C[C@H](NC(=O)CN3CCN(C(=O)CN4CCN(CC(=O)O)CCN(CC(=O)O)CCN(CC(=O)O)CC4)CC3)C(=O)N2)NC(=O)[C@H](Cc2c[nH]c3ccccc23)NC(=O)[C@H]([C@@H](C)O)NC1=O [3BP-4497] ({DOTA}-[X1]DCE[dP]D[Phe(3-NHCO(CH2)3SO2NH2)]LTW[Dap]C-NH2; lactam 2-11; linker 3-12 via mXylylene) | – | A (t1/2>15.0 minutes) | < 0.01 | 0.01 to 0.0794
CC(C)C[C@@H]1NC(=O)[C@H](Cc2ccc(NC(=O)CCS(N)(=O)=O)cc2)NC(=O)[C@H](CC(=O)O)NC(=O)[C@H]2CCCN2C(=O)[C@H](CCC(=O)O)NC(=O)[C@@H]2CSCc3cccc(c3)CSC[C@@H](C(N)=O)NC(=O)[C@H](CNC(=O)C[C@H](NC(=O)CN3CCN(C(=O)CN4CCN(CC(=O)O)CCN(CC(=O)O)CCN(CC(=O)O)CC4)CC3)C(=O)N2)NC(=O)[C@H](Cc2c[nH]c3ccccc23)NC(=O)[C@H]([C@@H](C)O)NC1=O [3BP-4498] ({DOTA}-[X1]DCE[dP]D[Phe(4-NH2)](Propanoyl(3-SO2NH2))LTW[Dap]C-NH2; lactam 2-11; linker 3-12 via mXylylene) | 0.01 to 0.0794 | A (t1/2>15.0 minutes) | < 0.01 | –
CC(C)C[C@@H]1NC(=O)[C@H](Cc2ccc(NC(=O)CCS(N)(=O)=O)cc2)NC(=O)[C@H](CC(=O)O)NC(=O)[C@H]2CCCN2C(=O)[C@H](CCC(=O)O)NC(=O)[C@@H](NC(=O)[C@H](CCC(N)=O)NC(=O)CN2CCN(C(=O)CN3CCN(CC(=O)O)CCN(CC(=O)O)CCN(CC(=O)O)CC3)CC2)CSCc2cccc(c2)CSC[C@@H](C(N)=O)NC(=O)[C@H](CO)NC(=O)[C@H](Cc2c[nH]c3ccccc23)NC(=O)[C@H]([C@@H](C)O)NC1=O [3BP-4500] ({DOTA}-[X1]QCE[dP]D[Phe(4-NH2)](Propanoyl(3-SO2NH2))LTWSC-NH2; linker 3-12 via mXylylene) | – | A (t1/2>15.0 minutes) | < 0.01 | < 0.01
CC(C)C[C@@H]1NC(=O)[C@H](Cc2cccc(NC(=O)CCCS(N)(=O)=O)c2)NC(=O)[C@H](CC(=O)O)NC(=O)[C@H]2CCCN2C(=O)[C@H](CCC(=O)O)NC(=O)[C@@H]2CSCc3cccc(c3)CSC[C@@H](C(N)=O)NC(=O)[C@H](CNC(=O)CC[C@H](NC(=O)CN3CCN(C(=O)CN4CCN(CC(=O)O)CCN(CC(=O)O)CCN(CC(=O)O)CC4)CC3)C(=O)N2)NC(=O)[C@H](Cc2c[nH]c3ccccc23)NC(=O)[C@H]([C@@H](C)O)NC1=O [3BP-4502] ({DOTA}-[X1]ECE[dP]D[Phe(3-NHCO(CH2)3SO2NH2)]LTW[Dap]C-NH2; lactam 2-11; linker 3-12 via mXylylene) | – | A (t1/2>15.0 minutes) | < 0.01 | < 0.01
CC(C)C[C@@H]1NC(=O)[C@H](Cc2ccc(NC(=O)CCS(N)(=O)=O)cc2)NC(=O)[C@H](CC(=O)O)NC(=O)[C@H]2CCCN2C(=O)[C@H](CCC(=O)O)NC(=O)[C@@H]2CSCc3cccc(c3)CSC[C@@H](C(N)=O)NC(=O)[C@H](CNC(=O)CC[C@H](NC(=O)CN3CCN(C(=O)CN4CCN(CC(=O)O)CCN(CC(=O)O)CCN(CC(=O)O)CC4)CC3)C(=O)N2)NC(=O)[C@H](Cc2c[nH]c3ccccc23)NC(=O)[C@H]([C@@H](C)O)NC1=O [3BP-4504] ({DOTA}-[X1]ECE[dP]D[Phe(4-NH2)](Propanoyl(3-SO2NH2))LTW[Dap]C-NH2; lactam 2-11; linker 3-12 via mXylylene) | – | A (t1/2>15.0 minutes) | < 0.01 | < 0.01
CC(C)C[C@@H]1NC(=O)[C@H](Cc2ccc(NC(=O)CCS(N)(=O)=O)cc2)NC(=O)[C@H](CC(=O)O)NC(=O)[C@H]2CCCN2C(=O)[C@H](CCC(=O)O)NC(=O)[C@@H]2CSCc3cccc(c3)CSC[C@@H](C(N)=O)NC(=O)[C@H](CNC(=O)CC[C@H](NC(=O)CN3CCN(CC(=O)O)CCN(CC(=O)O)CCN(CC(=O)O)CC3)C(=O)N2)NC(=O)[C@H](Cc2c[nH]c3ccccc23)NC(=O)[C@H]([C@@H](C)O)NC1=O [3BP-4505] ({DOTA}-ECE[dP]D[Phe(4-NH2)](Propanoyl(3-SO2NH2))LTW[Dap]C-NH2; lactam 1-10; linker 2-11 via mXylylene) | – | A (t1/2>15.0 minutes) | < 0.01 | < 0.01
